Target: T1, Human orexin receptor type 2 (Homo sapiens, UniProt O43614)
T1 sequence (O43614 1-444): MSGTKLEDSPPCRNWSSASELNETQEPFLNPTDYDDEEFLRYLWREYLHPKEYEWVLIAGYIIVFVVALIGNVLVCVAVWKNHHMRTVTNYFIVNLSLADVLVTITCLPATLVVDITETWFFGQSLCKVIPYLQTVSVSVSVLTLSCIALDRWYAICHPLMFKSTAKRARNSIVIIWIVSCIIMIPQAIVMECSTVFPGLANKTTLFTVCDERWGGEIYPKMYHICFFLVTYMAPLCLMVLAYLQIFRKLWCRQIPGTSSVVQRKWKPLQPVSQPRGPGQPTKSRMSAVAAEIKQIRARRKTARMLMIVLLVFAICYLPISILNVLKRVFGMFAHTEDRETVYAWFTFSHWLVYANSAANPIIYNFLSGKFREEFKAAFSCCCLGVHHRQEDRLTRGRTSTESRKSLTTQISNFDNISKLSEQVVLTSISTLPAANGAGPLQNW
Assay: Test Example 2: agonist activity for orexin receptor type 2 (aequorin luminescence, intracellular calcium mobilization)
Assay type: cell-based
Design: expressed in transfected cells; host or cells: CHO cells (transient expression)
Conditions: compound 10 μm; CHO cells transiently expressing human orexin receptor type 2 and apoaequorin; relative percentage of luminescence for the luminescence (100%) of Orexin A (100 pM)
Description: Test Example 2: Measurement of Agonist Activity for Orexin Receptor 2 Type
Human orexin receptor type 2 and apoaequorin were transiently expressed in CHO cells, and the agonist activity was evaluated based on intracellular calcium mobilization with ligand stimulation. The CHO cells transiently-expressed human orexin receptor type 2 and apoaequorin were seeded on a 384-well plate by 2,000 cells/well, and then incubated for 16-22 hours. After the plate was returned to room temperature, Coelenterazine hcp (final concentration: 1 μM) was added to the plate, and the plate was allowed to stand at room temperature for 2 hours. And then, Orexin A (PEPTIDE INSTITUTE, INC., Lot. 671009) or each test compound was added to the plate, and the luminescence of the cells was measured with FDSS7000 (Hamamatsu Photonics K. K.), wherein Orexin A and each test compound were dissolved in DMSO (final concentration: 0.1%), and diluted with a buffer (Hanks, 20 mM HEPES, 0.1% BSA).

Agonist Activity (%) | Compound
444 | CC(C)N1CCN(c2cccc(Cl)c2NC(=O)N2C[C@H]3C[C@H](c4noc(C5CC5)n4)C[C@H]3C2)CC1 [Example 169, (3aR,5s,6aS)-N-{2-chloro-6-[4-(propan-2-yl)piperazin-1-yl]phenyl}-5-(5-cyclopropyl-1,2,4-oxadiazol-13-yl) hexahydrocyclopenta [c]pyrrol-2 (1H)-carboxamide]
357 | CC(C)N1CCN(c2cccc(Cl)c2NC(=O)N2C[C@H]3C[C@@H](c4noc(C5CC5)n4)C[C@H]3C2)CC1 [Example 170, (3aR,5r,6aS)-N-{2-chloro-6-[4-(propan-2-yl)piperazin-1-yl]phenyl}-5-(5-cyclopropyl-1,2,4-oxadiazol-13-yl) hexahydrocyclopenta [c]pyrrol-2 (1H)-carboxamide]

Reference: US20240308960A1 (Sumitomo Pharma Co., Ltd., priority 2021, published 2024)
